Test: xn = mol fraction of the nth substance listed
Settings: 100 kPa, Liquid, Pycnometric method

OCCCCCO [1,5-pentanediol] + CCn1cc[n+](C)c1.O=S(=O)([N-]S(=O)(=O)C(F)(F)F)C(F)(F)F
Settings	molar volume [m3/mol]
298.15 K, x1 = 0.142	0.0002297
298.15 K, x1 = 0.995	0.0001075
303.15 K, x1 = 0.16	0.0002253
303.15 K, x1 = 0.992	0.0001086
308.15 K, x1 = 0.175	0.0002251
308.15 K, x1 = 0.987	0.0001088
313.15 K, x1 = 0.193	0.0002239
313.15 K, x1 = 0.982	0.0001095

OCCCCCO [1,5-pentanediol] + CCn1cc[n+](C)c1.F[B-](F)(F)F
Settings	molar volume [m3/mol]
303.15 K, x1 = 0.129	0.0001423
303.15 K, x1 = 0.982	0.0001069
308.15 K, x1 = 0.151	0.0001416
308.15 K, x1 = 0.977	0.0001075
313.15 K, x1 = 0.183	0.0001412
313.15 K, x1 = 0.97	0.0001062
318.15 K, x1 = 0.231	0.0001381
318.15 K, x1 = 0.969	0.0001064

OCCCCO [1,4-butanediol] + CCn1cc[n+](C)c1.O=S(=O)([N-]S(=O)(=O)C(F)(F)F)C(F)(F)F
Settings	molar volume [m3/mol]
298.15 K, x1 = 0.177	0.0002253
298.15 K, x1 = 0.971	9.23e-05
303.15 K, x1 = 0.189	0.0002241
303.15 K, x1 = 0.968	9.31e-05
308.15 K, x1 = 0.217	0.00022
308.15 K, x1 = 0.962	9.36e-05
313.15 K, x1 = 0.233	0.0002181
313.15 K, x1 = 0.958	9.29e-05

OCCCCO [1,4-butanediol] + CCn1cc[n+](C)c1.F[B-](F)(F)F
Settings	molar volume [m3/mol]
298.15 K, x1 = 0.19	0.0001368
298.15 K, x1 = 0.978	9.18e-05
303.15 K, x1 = 0.24	0.0001346
303.15 K, x1 = 0.962	9.26e-05
308.15 K, x1 = 0.251	0.0001345
308.15 K, x1 = 0.957	9.33e-05
313.15 K, x1 = 0.326	0.0001286
313.15 K, x1 = 0.944	9.04e-05

OCCCO [propan-1,3-diol] + CCn1cc[n+](C)c1.O=S(=O)([N-]S(=O)(=O)C(F)(F)F)C(F)(F)F
Settings	molar volume [m3/mol]
298.15 K, x1 = 0.208	0.0002153
298.15 K, x1 = 0.977	7.48e-05
303.15 K, x1 = 0.226	0.0002124
303.15 K, x1 = 0.974	7.55e-05
308.15 K, x1 = 0.234	0.0002114
308.15 K, x1 = 0.971	7.61e-05
313.15 K, x1 = 0.259	0.0002063
313.15 K, x1 = 0.971	7.6e-05

From the NIST ThermoML archive (doi:10.1021/acs.jced.9b00283)
